# Test results: patent US20100249027A1, “CRF CONJUGATES WITH EXTENDED HALF-LIVES” (priority 2007, published 2010)
# Where two headings read alike, the source gives them in different places. Where no end group is shown, it is not given here.
# How the values were obtained:
# [1] = plasma concentration time profile of hCRF after single intravenous and single subcutaneous injection (ELISA); type: in vivo, Sprague-Dawley Crl:CD rats; settings: rat; for bioavailability: sc
# Excerpt: The objective of this study was to determine the plasma concentration time profile of hCRF following a single intravenous and a single subcutaneous injection in three groups of Sprague-Dawley Crl:CD® :R rats. […] For the intravenous portion of the study, each of the three dose groups consisted of 72 males. Each of these groups was divided into three sets of replicates. Seven days after the intravenous portion of the study, 61 of the 72 animals from each of the three dose groups were randomly selected for the subcutaneous portion of the study. Each dose group was divided into three sets of replicates. Blood samples were taken at multiple time points via orbital sinus bleeding. Following intravenous dosing, blood samples were collected at time points out to 24 hours post dose. Following subcutaneous dosing, blood samples were collected at time points out to 48 hours post dose. Blood samples were collected from three rats in each dose group for each time point. […] All of the surviving animals were euthanized on the third day following subcutaneous dosing.
# Plasma samples were prepared and hCRF concentrations in the plasma samples were determine by an ELISA method. […] Pharmacokinetic analyses were conducted for this dose group using the limited data obtained.
# CRF R1 = biological target: T1, CRF R1 (Homo sapiens, UniProt P34998); settings: cited from earlier work
# T1 sequence (P34998 24-415): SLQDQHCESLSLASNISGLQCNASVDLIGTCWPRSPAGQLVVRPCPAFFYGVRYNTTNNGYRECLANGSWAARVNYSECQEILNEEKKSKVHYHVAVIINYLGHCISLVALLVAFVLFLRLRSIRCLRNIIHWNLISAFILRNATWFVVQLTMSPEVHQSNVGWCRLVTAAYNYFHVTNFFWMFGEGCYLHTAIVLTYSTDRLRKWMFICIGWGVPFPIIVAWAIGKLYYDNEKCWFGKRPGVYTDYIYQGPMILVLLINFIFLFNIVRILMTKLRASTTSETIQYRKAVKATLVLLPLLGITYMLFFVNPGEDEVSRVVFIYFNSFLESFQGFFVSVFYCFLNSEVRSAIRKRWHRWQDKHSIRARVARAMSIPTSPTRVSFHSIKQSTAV
compound,measurement,setting,value
CC[C@H](C)[C@H](NC(=O)[C@@H](NC(=O)[C@H](CCC(=O)O)NC(=O)[C@H](CCSC)NC(=O)[C@H](CC(C)C)NC(=O)[C@H](CCCCN)NC(=O)[C@H](CCCNC(=N)N)NC(=O)[C@H](CC(N)=O)NC(=O)[C@H](CO)NC(=O)[C@H](Cc1c[nH]cn1)NC(=O)[C@H](C)NC(=O)[C@H](CCC(N)=O)NC(=O)[C@H](CCC(N)=O)NC(=O)[C@H](C)NC(=O)[C@H](CC(C)C)NC(=O)[C@H](CCC(N)=O)NC(=O)[C@H](CCC(=O)O)NC(=O)[C@H](C)NC(=O)[C@H](CCCNC(=N)N)NC(=O)[C@H](C)NC(=O)[C@H](CCSC)NC(=O)[C@H](CCC(=O)O)NC(=O)[C@H](CC(C)C)NC(=O)[C@@H](NC(=O)[C@H](CCC(=O)O)NC(=O)[C@H](CCCNC(=N)N)NC(=O)[C@H](CC(C)C)NC(=O)[C@H](CC(C)C)NC(=O)[C@H](Cc1c[nH]cn1)NC(=O)[C@H](Cc1ccccc1)NC(=O)[C@@H](NC(=O)[C@H](CC(C)C)NC(=O)[C@H](CC(=O)O)NC(=O)[C@H](CC(C)C)NC(=O)[C@H](CO)NC(=O)[C@@H](NC(=O)[C@@H]1CCCN1C(=O)[C@@H]1CCCN1C(=O)[C@H](CCC(=O)O)NC(=O)[C@H](CCC(=O)O)NC(=O)[C@@H](N)CO)[C@@H](C)CC)[C@@H](C)O)C(C)C)[C@@H](C)CC)C(N)=O [hCRF],AUC,"[1]; in vivo, 10 ug/kg, IV",0.0055 µg·h/mL
same,Cmax,"[1]; in vivo, 10 ug/kg, IV",0.0251 ± 0.0038 µg/mL
same,clearance,"[1]; in vivo, 10 ug/kg, IV",1.8 ± 0.184 L/h/kg
same,half-life,"[1]; in vivo, 10 ug/kg, intravenous, 10 μg/kg, single exponential clearance, read-out: half-life",9.2 min
same,AUC,"[1]; in vivo, 100 ug/kg, IV",0.516 µg·h/mL
same,Cmax,"[1]; in vivo, 100 ug/kg, IV",1.04 ± 0.105 µg/mL
same,clearance,"[1]; in vivo, 100 ug/kg, IV",0.194 ± 0.0156 L/h/kg
same,AUC,"[1]; in vivo, 100 ug/kg, SC",0.214 µg·h/mL
same,Cmax,"[1]; in vivo, 100 ug/kg, SC",0.108 ± 0.0167 µg/mL
same,half-life,"[1]; in vivo, 100 ug/kg, intravenous, 100 μg/kg, single exponential clearance, read-out: half-life",20.7 min
same,AUC,"[1]; in vivo, 1000 ug/kg, SC",1.79 µg·h/mL
same,Cmax,"[1]; in vivo, 1000 ug/kg, SC",0.618 ± 0.0789 µg/mL
same,bioavailability,"[1]; in vivo, 100 ug/kg, subcutaneous",41%
same,bioavailability,"[1]; in vivo, subcutaneous, 1,000 μg/kg",37%
same,AUC,"[1]; in vivo, IV, 1,000 μg/kg",4.88 µg·h/mL
same,Cmax,"[1]; in vivo, IV, 1,000 μg/kg",7.6 ± 0.488 µg/mL
same,clearance,"[1]; in vivo, IV, 1,000 μg/kg",0.205 ± 0.0108 L/h/kg
same,half-life,"[1]; in vivo, intravenous, 1,000 μg/kg, single exponential clearance, read-out: half-life",26.7 min
same,half-life,"[1]; male, Sprague-Dawley Crl:CD, plasma, 100 ug/kg, SC, 100 μg/kg, read-out: t1/2β (terminal)",62.6 ± 5.9 min
same,half-life,"[1]; male, Sprague-Dawley Crl:CD, plasma, 1000 ug/kg, SC, 1000 μg/kg, read-out: t1/2β (terminal)",72.1 ± 14.8 min
same,t1/2α,"[1]; IV, 10 μg/kg",9.22 ± 1.05 min
same,t1/2α,"[1]; IV, 100 μg/kg",20.71 ± 0.92 min
same,t1/2α,"[1]; IV, 1,000 μg/kg",26.69 ± 0.62 min
same,Bioavail.,"[1]; SC, 100 μg/kg",41 ± 6%
same,CL,"[1]; SC, 100 μg/kg",0.467 ± 0.0606 L/h/kg
same,t1/2α,"[1]; SC, 100 μg/kg",6.96 ± 3.44 min
same,Bioavail.,"[1]; SC, 1000 μg/kg",37 ± 5%
same,CL,"[1]; SC, 1000 μg/kg",0.558 ± 0.063 L/h/kg
same,t1/2α,"[1]; SC, 1000 μg/kg",21.56 ± 8.15 min
same,dose proportionality of pharmacokinetics,"[1]; intravenously or subcutaneously, between 100 and 1,000 μg/kg",dose proportional
"III: CRF-related peptide Ucn III, also known as stresscopin (FTLSLDVPTNIMNLLFNIAKAKNLRAQAAANAHLMAQI; ends and bridges not checked; UniProt Q969E3 120-157, looked up)",affinity for the CRF R1 subtype,CRF R1,little affinity
"Ucn II: CRF-related peptide urocortin II, 26% sequence homology to CRF (IVLSLDVPIGLLQILLEQARARAAREQATTNARILARVGHC; ends and bridges not checked; UniProt Q96RP3 72-112, looked up)",affinity for the CRF R1 subtype,CRF R1,little affinity
